In test [1] the test system is RAR and RXR receptors. Nature of the test: Binding to the RAR and RXR receptors. The note with it: relative to ATRA (RAR) and 9-cis (RXR).
For test [2], the system named is AML-193. Nature of the test: Incorporation of 3H-thymidine, AML-193. As to conditions: 96 h, read-out: TdR IC50 (50% inhibition of maximally observed thymidine incorporation).
Test [3] has as its system RARs. Nature of the test: Co-transfection assay, RAR subfamily. The test is classed as cell-based, human. On the procedure:
(§1) Utilizing the "cis-trans" or "co-transfection" assay described by Evans et al., Science, 240:889-95 (May 13, 1988), the disclosure of which is herein incorporated by reference, the retinoid compounds of the present invention were tested and found to have strong, specific activity as either selective RAR agonists, selective RXR agonists, or as pan-agonist activators of both RAR and RXR receptors. This assay is described in further detail in U.S. Pat. Nos. 4,981,784 and 5,071,773, the disclosures of which are incorporated herein by reference.
The co-transfection assay provides a method for identifying functional agonists which mimic, or antagonists which inhibit, the effect of native hormones, and quantifying their activity for responsive IR proteins. In this regard, the co-transfection assay mimics an in vivo system in the laboratory. Importantly, activity in the co-transfection assay correlates very well with known in vivo activity, such that the co-transfection assay functions as a qualitative and quantitative predictor of a tested compounds in vivo pharmacology. See, e.g., T. Berger et al. 41 J. Steroid Biochem. Molec. Biol. 773 (1992), the disclosure of which is herein incorporated by reference.
In the co-transfection assay, a cloned cDNA for an IR (e.g., human RARα, RARβ, RXRγ) under the control of a constitutive promoter (e.g., the SV 40 promoter) is introduced by transfection (a procedure to induce cells to take up foreign genes) into a background cell substantially devoid of endogenous IRs. This introduced gene directs the recipient cells to make the IR protein of interest. A second gene is also introduced (co-transfected) into the same cells in conjunction with the IR gene. This second gene, comprising the cDNA for a reporter protein, such as firefly luciferase (LUC), is controlled by an appropriate hormone responsive promoter containing a hormone response element (HRE). This reporter plasmid functions as a reporter for the transcription-modulating activity of the target IR. Thus, the reporter acts as a surrogate for the products (mRNA then protein) normally expressed by a gene under control of the target receptor and its native hormone.
The co-transfection assay can detect small molecule agonists or antagonists of target IRs. Exposing the transfected cells to an agonist ligand compound increases reporter activity in the transfected cells. This activity can be conveniently measured, e.g., by increasing luciferase production, which reflects compound-dependent, IR-mediated increases in reporter transcription. […] . Increasing concentrations of a suspected antagonist will decrease the reporter signal (e.g., luciferase production). The co-transfection assay is therefore useful to detect both agonists and antagonists of specific IRs. Furthermore, it determines not only whether a compound interacts with a particular IR, but whether this interaction mimics (agonizes) or blocks (antagonizes) the effects of the native regulatory molecules on target gene expression, as well as the specificity and strength of this interaction. […]

The target of test [4] is T1, RARγ (Homo sapiens, UniProt P13631).
T1 construct: expressed in transfected cells; host or cells: CV-1 (African green monkey kidney fibroblasts)
T1 sequence (P13631 1-454): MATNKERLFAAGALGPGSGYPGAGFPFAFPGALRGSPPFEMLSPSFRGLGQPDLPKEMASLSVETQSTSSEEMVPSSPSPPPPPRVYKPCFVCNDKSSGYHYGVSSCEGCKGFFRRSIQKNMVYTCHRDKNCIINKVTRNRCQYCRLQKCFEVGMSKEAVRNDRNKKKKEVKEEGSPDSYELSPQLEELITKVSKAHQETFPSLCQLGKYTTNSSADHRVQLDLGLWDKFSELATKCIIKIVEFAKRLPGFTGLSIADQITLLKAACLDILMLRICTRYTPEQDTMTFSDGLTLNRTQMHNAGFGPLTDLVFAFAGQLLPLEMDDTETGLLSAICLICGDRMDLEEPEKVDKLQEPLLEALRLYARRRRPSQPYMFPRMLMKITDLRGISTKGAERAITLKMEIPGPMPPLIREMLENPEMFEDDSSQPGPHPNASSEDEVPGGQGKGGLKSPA
Nature of the test: Co-transfection assay (CV-1 cells), RARγ agonist activity. In kind it is cell-based.

Test [5] has as its target T2, RARβ (Homo sapiens, UniProt P10826).
T2 construct: expressed in transfected cells; host or cells: CV-1 (African green monkey kidney fibroblasts)
T2 sequence (P10826 1-448 isoform P10826-2): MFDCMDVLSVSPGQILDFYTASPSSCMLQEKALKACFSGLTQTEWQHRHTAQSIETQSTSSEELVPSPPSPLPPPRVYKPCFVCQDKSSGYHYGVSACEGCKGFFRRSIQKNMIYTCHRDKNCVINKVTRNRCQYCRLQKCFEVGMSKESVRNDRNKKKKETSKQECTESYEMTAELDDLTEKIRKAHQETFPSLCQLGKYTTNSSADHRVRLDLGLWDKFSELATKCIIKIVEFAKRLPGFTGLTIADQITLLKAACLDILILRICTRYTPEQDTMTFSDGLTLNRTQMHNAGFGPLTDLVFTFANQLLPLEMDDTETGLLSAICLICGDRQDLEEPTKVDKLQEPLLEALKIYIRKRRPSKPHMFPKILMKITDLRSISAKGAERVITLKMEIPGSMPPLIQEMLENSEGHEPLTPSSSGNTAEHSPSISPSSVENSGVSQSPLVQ
Nature of the test: Co-transfection assay (CV-1 cells), RARβ agonist activity. The note with it: read-out: RARβ Pot (potency, EC50). In kind it is cell-based.

For test [6], the target named is T3, RARα (Homo sapiens, UniProt P10276).
T3 construct: expressed in transfected cells; host or cells: CV-1 (African green monkey kidney fibroblasts)
T3 sequence (P10276 1-462): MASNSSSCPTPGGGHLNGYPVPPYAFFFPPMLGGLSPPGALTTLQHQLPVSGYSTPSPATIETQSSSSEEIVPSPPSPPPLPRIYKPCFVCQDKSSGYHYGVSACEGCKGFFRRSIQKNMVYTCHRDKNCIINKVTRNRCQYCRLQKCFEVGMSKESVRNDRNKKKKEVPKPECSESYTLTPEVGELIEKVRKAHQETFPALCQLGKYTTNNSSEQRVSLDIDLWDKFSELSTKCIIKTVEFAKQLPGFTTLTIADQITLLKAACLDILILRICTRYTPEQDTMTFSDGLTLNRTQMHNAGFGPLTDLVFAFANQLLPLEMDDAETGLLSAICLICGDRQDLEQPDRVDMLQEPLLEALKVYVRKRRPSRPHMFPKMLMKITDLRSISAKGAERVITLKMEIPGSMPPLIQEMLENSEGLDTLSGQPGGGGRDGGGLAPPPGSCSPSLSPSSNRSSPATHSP
Nature of the test: Co-transfection assay (CV-1 cells), RARα agonist activity. In kind it is cell-based. As to conditions: read-out: RARα Pot (potency, EC50).

The target of test [7] is T4, RXRγ (Mus musculus, UniProt P28705).
T4 construct: expressed in transfected cells; host or cells: CV-1 (African green monkey kidney fibroblasts)
T4 sequence (P28705 1-463): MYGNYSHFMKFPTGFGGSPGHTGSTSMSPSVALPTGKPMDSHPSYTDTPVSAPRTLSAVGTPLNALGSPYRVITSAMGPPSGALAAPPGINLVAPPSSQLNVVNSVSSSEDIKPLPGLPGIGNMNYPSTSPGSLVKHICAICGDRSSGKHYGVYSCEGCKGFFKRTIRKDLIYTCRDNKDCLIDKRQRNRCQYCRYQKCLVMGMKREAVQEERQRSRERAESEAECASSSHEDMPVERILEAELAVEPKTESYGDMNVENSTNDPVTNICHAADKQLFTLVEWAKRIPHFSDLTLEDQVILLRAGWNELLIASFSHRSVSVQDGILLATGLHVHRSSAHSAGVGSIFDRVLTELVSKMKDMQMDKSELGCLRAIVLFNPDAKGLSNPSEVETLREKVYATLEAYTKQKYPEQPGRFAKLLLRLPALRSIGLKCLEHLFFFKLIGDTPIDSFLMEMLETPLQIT
Nature of the test: Co-transfection assay (CV-1 cells), RXRγ agonist activity. As to conditions: read-out: RXRγ Pot (potency, EC50). The test is classed as cell-based.

In test [8] the target is T5, RXRα (Homo sapiens, UniProt P19793).
T5 construct: expressed in transfected cells; host or cells: CV-1 (African green monkey kidney fibroblasts)
T5 sequence (P19793 1-462): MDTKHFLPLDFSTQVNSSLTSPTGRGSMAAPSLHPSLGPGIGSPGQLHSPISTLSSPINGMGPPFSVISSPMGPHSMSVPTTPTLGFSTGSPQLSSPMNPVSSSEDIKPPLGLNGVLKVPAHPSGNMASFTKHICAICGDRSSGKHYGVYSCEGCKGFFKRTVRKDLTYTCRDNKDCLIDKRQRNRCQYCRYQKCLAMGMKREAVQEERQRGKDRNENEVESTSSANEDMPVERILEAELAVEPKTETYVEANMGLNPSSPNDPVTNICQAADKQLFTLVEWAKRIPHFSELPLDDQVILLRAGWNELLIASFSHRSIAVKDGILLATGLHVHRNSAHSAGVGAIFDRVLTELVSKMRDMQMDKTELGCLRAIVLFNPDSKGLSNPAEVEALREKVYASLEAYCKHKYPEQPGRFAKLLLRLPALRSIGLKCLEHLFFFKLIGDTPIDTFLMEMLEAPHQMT
Nature of the test: Co-transfection assay (CV-1 cells), RXRα agonist activity. In kind it is cell-based. As to conditions: read-out: RXRα Pot (potency, EC50).

Test [9] addresses T6, RXRβ (Mus musculus, UniProt P28704).
T6 construct: expressed in transfected cells; host or cells: CV-1 (African green monkey kidney fibroblasts)
T6 sequence (P28704 1-520): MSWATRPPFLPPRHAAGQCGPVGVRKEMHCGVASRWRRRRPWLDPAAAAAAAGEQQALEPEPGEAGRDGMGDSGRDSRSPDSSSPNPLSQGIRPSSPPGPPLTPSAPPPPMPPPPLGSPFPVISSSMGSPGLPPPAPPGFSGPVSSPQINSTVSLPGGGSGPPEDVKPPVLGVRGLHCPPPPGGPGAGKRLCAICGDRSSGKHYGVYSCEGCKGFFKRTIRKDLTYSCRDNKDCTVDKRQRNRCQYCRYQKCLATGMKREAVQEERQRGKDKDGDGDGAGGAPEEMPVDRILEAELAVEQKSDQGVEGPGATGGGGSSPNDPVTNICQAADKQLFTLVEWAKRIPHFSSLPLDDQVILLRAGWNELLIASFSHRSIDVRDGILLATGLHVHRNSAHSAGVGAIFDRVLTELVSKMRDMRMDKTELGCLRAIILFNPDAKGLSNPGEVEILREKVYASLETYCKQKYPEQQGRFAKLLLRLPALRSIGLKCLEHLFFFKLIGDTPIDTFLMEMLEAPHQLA
Nature of the test: Co-transfection assay (CV-1 cells), RXRβ agonist activity. In kind it is cell-based. The note with it: read-out: RXRβ Pot (potency, EC50).

For test [10], the system named is RXR. Nature of the test: Co-transfection assay, RXR subfamily. In kind it is cell-based. On the procedure:
as §1
The co-transfection assay provides a method for identifying functional agonists which mimic, or antagonists which inhibit, the effect of native hormones, and quantifying their activity for responsive IR proteins. In this regard, the co-transfection assay mimics an in vivo system in the laboratory. Importantly, activity in the co-transfection assay correlates very well with known in vivo activity, such that the co-transfection assay functions as a qualitative and quantitative predictor of a tested compounds in vivo pharmacology. See, e.g., T. Berger et al. 41 J. Steroid Biochem. Molec. […]
The co-transfection assay can detect small molecule agonists or antagonists of target IRs. […] This activity can be conveniently measured, e.g., by increasing luciferase production, which reflects compound-dependent, IR-mediated increases in reporter transcription. […]

Take `CC(/C=C/C=C(\C)c1cc(C(C)(C)C)cc(C(C)(C)C)c1)=C\C(=O)O` [Compound 9, (2E, 4E, 6E)-7-(3,5-Di-t-butylphenyl)-3-methylocta-2,4,6-trienoic acid]: in test [1], the “binding compared to ATRA and 9-cis (in words)” value is recorded as “equal or superior binding”. The IC50 in [2] worked out at 0.1 nM. The “RAR activity (in words)” value in test [3] was “extremely potent RAR active compounds”. In test [4], the “activity on RARγ (in words)” value is reported as “sub-nanomolar activity”.
As for `CCCC(O)c1cc(C(C)(C)C)cc(C(C)(C)C)c1` (centres unmarked) [Compound 19, 1-(3,5-Di-t-butylphenyl)butan-1-ol], the EC50 in [5] amounted to 23 nM; in test [6], 59 nM; in test [7], 56 nM; in test [8] it was 127 nM; in test [4] (co-transfection assay, CV-1 cells, read-out: RARγ Pot (potency, EC50)) it was 16 nM; in [9], 48 nM.
On to `CCC/C(=C/C=C/C(C)=C/C(=O)O)c1cc(C(C)(C)C)cc(C(C)(C)C)c1` [Compound 28, (2E. 4E 6Z)-7-(3,5-Di-t-butylphenyl)-3-methyldeca-2,4,6-trienoic acid], for which the “RXR activity (in words)” value in test [10] was “very potent and selective RXR active compound”.
